Results taken from patent US20220370416A1, “COMPOUNDS AND METHODS FOR TARGETED DEGRADATION OF KRAS” (Arvinas Operations, Inc., priority 2020, published 2022).

Key:
HiBit-KRAS^G12C [1] = molecular target: T1, HiBit-KRAS^G12C (Homo sapiens, UniProt P01116, G12C); assay: HiBit degradation assay in MiaPaCa-2 HiBit-KRas^G12C cells; format: cell-based; settings: 0.5% DMSO, 24 hours; for DC50: read-out: KRas^G12C-HiBiT (MiaPaCa; 0.5% DMSO) IC50, MiaPaCa-2 HiBit-KRas^G12C cells; for Dmax: MIA PaCa-2, MiaPaCa-2 HiBit-KRas^G12C cells, maximum degradation, read-out: KRas^G12C-HiBiT (MiaPaCa; 0.5% DMSO) DMax
How it was run: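 MiaPaCa-2 cells with CRISPR N-terminal HiBit knock-in on one endogenous KRAS^G12C allele, treated 24 hours at 37° C with compound titrated 10 μM to 20 nM (0.1% or 0.5% DMSO). Lytic HiBit luminescence normalized to DMSO, 4-parameter fit giving DC50 and Dmax; points cytotoxic to […] cells by alamar blue excluded.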

HiBit-KRAS^G12C [2] = molecular target: T1, HiBit-KRAS^G12C; assay: HiBit degradation assay in SW1573 HiBit-KRas^G12C cells; format: cell-based; parameters: expressed in transfected cells; host or cells: SW1573 (clone E6), modified pcDNA3.1 vector, TK promoter; settings: 0.5% DMSO, 24 hours; for DC50: read-out: KRas^G12C-HiBiT (SW1573; 0.5% DMSO) IC50***, SW1573 HiBit-KRas^G12C; for Dmax: SW1573, SW1573 HiBit-KRas^G12C, read-out: KRas^G12C-HiBiT (SW1573; 0.5% DMSO) Dmax**
How it was run: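 SW1573 cells stably expressing N-terminally HiBit-tagged KRAS G12C, under the TK promoter, were treated 24 h at 37 °C with 10 μM to 20 nM compound in 0.1% or 0.5% DMSO. Residual HiBit luminescence normalised to DMSO and fitted with a 4-parameter model for DC50 and Dmax. Points with ≥50% viability loss (alamar blue) excluded.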

T1 sequence (P01116 1-186 isoform P01116-2 G12C limits assumed): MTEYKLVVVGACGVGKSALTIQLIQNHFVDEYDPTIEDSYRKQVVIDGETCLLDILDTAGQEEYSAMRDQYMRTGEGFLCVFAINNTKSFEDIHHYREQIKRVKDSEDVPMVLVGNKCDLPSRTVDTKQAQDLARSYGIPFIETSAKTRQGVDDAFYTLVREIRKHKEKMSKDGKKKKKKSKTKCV

| Compound | DC50 (HiBit-KRAS^G12C [1]) [nM] | DC50 (HiBit-KRAS^G12C [2]) [nM] | Dmax (HiBit-KRAS^G12C [1]) [%] | Dmax (HiBit-KRAS^G12C [2]) [%] |
| --- | --- | --- | --- | --- |
| C=C(F)C(=O)N1CCN(c2nc(OCCN3CCC4(CC3)CN(c3cc([C@@H](C(=O)N5C[C@H](O)C[C@H]5C(=O)N[C@@H](C)c5ccc(-c6scnc6C)cc5)C(C)C)on3)C4)nc3c(F)c(-c4cc(O)cc5ccccc45)c(Cl)cc23)C[C@@H]1CC#N (atropisomer, axis not shown) [Compound 113, (2S,4R)-1-[(2S)-2-(3-{7-[2-({6-chloro-4-[(3S)-3-(cyanomethyl)-4-(2-fluoroprop-2-enoyl)piperazin-1-yl]-8-fluoro-7-(3-hydroxynaphthalen-1-yl)quinazolin-2-yl}oxy)ethyl]-2,7-diazaspiro[3.5]nonan-2-yl}-1,2-oxazol-5-yl)-3-methylbutanoyl]-4-hydroxy-N-[(1S)-1-[4-(4-methyl-1,3-thiazol-5-yl)phenyl]ethyl]pyrrolidine-2-carboxamide] | > 1000 | > 1000 | – | – |
| C=CC(=O)N1CCN(c2nc(OCCN3CCC4(CC3)CN(c3cc([C@H](C(=O)N5C[C@H](O)C[C@H]5C(=O)N[C@@H](C)c5ccc(-c6ccnn6C)cc5)C(C)C)on3)C4)nc3c(F)c(-c4cc(O)cc5ccccc45)c(Cl)cc23)C[C@@H]1CC#N (atropisomer, axis not shown) [Compound 116, (2S,4R)-1-[(2R)-2-(3-{7-[2-({6-chloro-4-[(3S)-3-(cyanomethyl)-4-(prop-2-enoyl)piperazin-1-yl]-8-fluoro-7-(3-hydroxynaphthalen-1-yl)quinazolin-2-yl}oxy)ethyl]-2,7-diazaspiro[3.5]nonan-2-yl}-1,2-oxazol-5-yl)-3-methylbutanoyl]-4-hydroxy-N-[(1S)-1-[4-(1-methyl-1H-pyrazol-5-yl)phenyl]ethyl]pyrrolidine-2-carboxamide] | 100 to 1000 | < 100 | > 70 | > 70 |
| C=C(F)C(=O)N1CCN(c2nc(OCCN3CCC(F)(COc4cc([C@H](C(=O)N5C[C@H](O)C[C@H]5C(=O)N[C@@H](C)c5ccc(-c6ccnn6C)cc5)C(C)C)on4)CC3)nc3c(F)c(-c4cc(O)cc5ccccc45)c(Cl)cc23)C[C@@H]1CC#N (atropisomer, axis not shown) [Compound 117, (2S,4R)-1-[(2R)-2-[3-({1-[2-({6-chloro-4-[(3S)-3-(cyanomethyl)-4-(2-fluoroprop-2-enoyl)piperazin-1-yl]-8-fluoro-7-(3-hydroxynaphthalen-1-yl)quinazolin-2-yl}oxy)ethyl]-4-fluoropiperidin-4-yl}methoxy)-1,2-oxazol-5-yl]-3-methylbutanoyl]-4-hydroxy-N-[(1S)-1-[4-(1-methyl-1H-pyrazol-5-yl)phenyl]ethyl]pyrrolidine-2-carboxamide] | < 100 | < 100 | > 70 | 35 to 70 |
| C=C(F)C(=O)N1CCN(c2nc(OCCN3CCC(F)(COc4cc([C@@H](C(=O)N5C[C@H](O)C[C@H]5C(=O)N[C@@H](C)c5ccc(-c6ccnn6C)cc5)C(C)C)on4)CC3)nc3c(F)c(-c4cc(O)cc5ccccc45)c(Cl)cc23)C[C@@H]1CC#N (atropisomer, axis not shown) [Compound 118, (2S,4R)-1-[(2S)-2-[3-({1-[2-({6-chloro-4-[(3S)-3-(cyanomethyl)-4-(2-fluoroprop-2-enoyl)piperazin-1-yl]-8-fluoro-7-(3-hydroxynaphthalen-1-yl)quinazolin-2-yl}oxy)ethyl]-4-fluoropiperidin-4-yl}methoxy)-1,2-oxazol-5-yl]-3-methylbutanoyl]-4-hydroxy-N-[(1S)-1-[4-(1-methyl-1H-pyrazol-5-yl)phenyl]ethyl]pyrrolidine-2-carboxamide] | > 1000 | 100 to 1000 | – | – |
| C=C(F)C(=O)N1CCN(c2nc(OCCN3CCC(F)(COc4cc([C@H](C(=O)N5C[C@H](O)C[C@H]5C(=O)N[C@@H](C)c5ccc(-c6scnc6C)cc5)C(C)C)on4)CC3)nc3c(F)c(-c4cc(O)cc5ccccc45)c(Cl)cc23)C[C@@H]1CC#N (atropisomer, axis not shown) [Compound 121, (2S,4R)-1-[(2R)-2-[3-({1-[2-({6-chloro-4-[(3S)-3-(cyanomethyl)-4-(2-fluoroprop-2-enoyl)piperazin-1-yl]-8-fluoro-7-(3-hydroxynaphthalen-1-yl)quinazolin-2-yl}oxy)ethyl]-4-fluoropiperidin-4-yl}methoxy)-1,2-oxazol-5-yl]-3-methylbutanoyl]-4-hydroxy-N-[(1S)-1-[4-(4-methyl-1,3-thiazol-5-yl)phenyl]ethyl]pyrrolidine-2-carboxamide] | 100 to 1000 | < 100 | > 70 | 35 to 70 |
| C=C(F)C(=O)N1CCN(c2nc(OCCN3CCC(F)(COc4cc([C@@H](C(=O)N5C[C@H](O)C[C@H]5C(=O)N[C@@H](C)c5ccc(-c6scnc6C)cc5)C(C)C)on4)CC3)nc3c(F)c(-c4cc(O)cc5ccccc45)c(Cl)cc23)C[C@@H]1CC#N (atropisomer, axis not shown) [Compound 122, (2S,4R)-1-[(2S)-2-[3-({1-[2-({6-chloro-4-[(3S)-3-(cyanomethyl)-4-(2-fluoroprop-2-enoyl)piperazin-1-yl]-8-fluoro-7-(3-hydroxynaphthalen-1-yl)quinazolin-2-yl}oxy)ethyl]-4-fluoropiperidin-4-yl}methoxy)-1,2-oxazol-5-yl]-3-methylbutanoyl]-4-hydroxy-N-[(1S)-1-[4-(4-methyl-1,3-thiazol-5-yl)phenyl]ethyl]pyrrolidine-2-carboxamide] | > 1000 | > 1000 | – | – |
| C=C(F)C(=O)N1CCN(c2nc(OCCN3CCC(C)(COc4cc([C@H](C(=O)N5C[C@H](O)C[C@H]5C(=O)N[C@@H](C)c5ccc(-c6scnc6C)cc5)C(C)C)on4)CC3)nc3c(F)c(-c4cc(O)cc5ccccc45)c(Cl)cc23)C[C@@H]1CC#N (atropisomer, axis not shown) [Compound 123, (2S,4R)-1-[(2R)-2-[3-({1-[2-({6-chloro-4-[(3S)-3-(cyanomethyl)-4-(2-fluoroprop-2-enoyl)piperazin-1-yl]-8-fluoro-7-(3-hydroxynaphthalen-1-yl)quinazolin-2-yl}oxy)ethyl]-4-methylpiperidin-4-yl}methoxy)-1,2-oxazol-5-yl]-3-methylbutanoyl]-4-hydroxy-N-[(1S)-1-[4-(4-methyl-1,3-thiazol-5-yl)phenyl]ethyl]pyrrolidine-2-carboxamide] | < 100 | < 100 | > 70 | > 70 |
| C=C(F)C(=O)N1CCN(c2nc(OCCN3CCC(C)(COc4cc([C@H](C(=O)N5C[C@H](O)C[C@H]5C(=O)N[C@@H](C)c5ccc(-c6ccnn6C)cc5)C(C)C)on4)CC3)nc3c(F)c(-c4cc(O)cc5ccccc45)c(Cl)cc23)C[C@@H]1CC#N (atropisomer, axis not shown) [Compound 124, (2S,4R)-1-[(2R)-2-[3-({1-[2-({6-chloro-4-[(3S)-3-(cyanomethyl)-4-(2-fluoroprop-2-enoyl)piperazin-1-yl]-8-fluoro-7-(3-hydroxynaphthalen-1-yl)quinazolin-2-yl}oxy)ethyl]-4-methylpiperidin-4-yl}methoxy)-1,2-oxazol-5-yl]-3-methylbutanoyl]-4-hydroxy-N-[(1S)-1-[4-(1-methyl-1H-pyrazol-5-yl)phenyl]ethyl]pyrrolidine-2-carboxamide] | < 100 | < 100 | 35 to 70 | 35 to 70 |
